Experimental findings from PubChem BioAssay AID2060348 (Molecular Pharmacology Branch, DTP, NCI, 2025) are described below.

The test has as its system 885724-159-R-J1-PDC spheroids viability. The test can be described thus: Anticancer human tumor 885724-159-R-J1-PDC patient-derived pancreatic adenocarcinoma cell line growth inhibition [TAK]. Conditions: spheroids with HUVEC and MSC; for viability, T/C: stronger effect = lower value. The text has this:
Combinatorial screen of targeted agents with TAK-243 and ipatasertib in multi-cell type tumor spheroids
A high-throughput screen of multi-cell type tumor spheroids was designed to identify active combinations of targeted small molecules and TAK-243 or ipatasertib. Complex spheroids include a stromal component modeled by human endothelial cells (HUVEC) and fibroblasts modeled by human mesenchymal stem cells (MSCs). The concentration ranges selected for each drug and investigational agent were based upon clinically achievable concentrations if the clinical Cmax of the agent was known.
Compounds. The drugs and investigational agents: TAK-243 (785004), ipatasertib (767898), everolimus (733504), selumetinib (741078), bortezomib (756655), trametinib (758246), ixazomib (758254), vemurafenib (761431), dabrafenib (764134), sapanisertib (764658), alpelisib (765974), and copanlisib (816437), were obtained from the National Cancer Institute (NCI) Developmental Therapeutics Program Chemical Repository. The FDA-approved anticancer drug set is available from the NCI Developmental Therapeutics Program. […] The stock solutions were prepared in dimethyl sulfoxide (DMSO, Sigma-Aldrich, St. Louis, MO, cat. D2650) at 800-fold the tested concentration and stored at -70 degrees C prior to their use. All drugs and investigational agents were tested over a range starting from a high concentration at or near the clinical Cmax and decreasing in half-log increments. If the clinical Cmax for an agent had not been determined, the highest concentration tested was 10 microM.
NCI60 Cell Culture. NCI60 cell lines were obtained from the NCI Developmental Therapeutics Program Tumor Repository. For each lot of cells, the Repository performed Applied Biosystems AmpFLSTR Identifiler testing with PCR amplification to confirm consistency with the published Identifier STR profile for each cell line. Cells were kept in continuous culture for no more than 20 passages. The optimal seeding densities for each of the cell lines at each time point assessed were determined prior to performing the concentration response studies. Briefly, the NCI60 human tumor lines were grown as monolayers in RPMI 1640 medium supplemented with 10% FBS and 2 mmol/L L-glutamine.
An additional 2 lines were from the NCI60 cell line panel including melanomas, MALME-3M and SK-MEL-2. Pooled donor human umbilical vein endothelial cells (HUVEC, Lonza, cat. CC-2519) and human mesenchymal stem cells (hMSC, Lonza, cat. PT-2501) were purchased from Lonza (Walkersville, MD).
PDMR cell lines were grown in complete medium (DC medium): Dulbecco's modified Eagle's medium (DMEM)/F12 supplemented with 5% fetal bovine serum (FBS), 2 mM L-glutamine, 100 U/mL penicillin and 100 µg/ml streptomycin, 0.4 µg/ml hydrocortisone, 10 ng/ml epidermal growth factor (EGF) recombinant human protein, 24 µg/mL adenine, and 0.1 mg/mL primocin. During culture from frozen stock vials, PDMR cells were cultured in the same medium containing 10 µM Y-27632 (see Table 3). The PDCs were cultured in complete DMEM/F12 media without 10 microM Y-27632 dihydrochloride for at least two passages prior to the screen. The pooled donor HUVEC and hMSC were cultured in endothelial cell growth medium 2 (PromoCell, Heidelberg, Germany, cat. C-22011) and mesenchymal stem cell growth medium 2 (PromoCell, cat. C-28009), respectively. For all experiments, HUVEC and hMSC were used at passages </=5.
For the pre-screen, cell seeding densities were determined from a titration spanning the range from 5,000 to 313 cells per well. The mct-spheroids including 60% malignant cells, 25% HUVEC and 15% MSC dispensed as a mixture into U-bottom Ultra-Low Attachment 384-well plates (Corning, NY)
High-throughput Drug Combination Screening.
Prior to their inoculation into 384-well plates, malignant cells, HUVEC, and hMSC were removed from T flasks using TrypLE express (Thermo Fisher Scientific, cat. 12605036) and harvested by centrifugation for 5 min at 233 x g. […]

“And” between values parts separate entries of the source, which are not always exact repeats. Equal values may be shown once.
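Further: spheroids exposed to drugs for seven days.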

As to `CCCS(=O)(=O)Nc1ccc(F)c(C(=O)c2c[nH]c3ncc(-c4ccc(Cl)cc4)cc23)c1F`, the viability, T/C (commonly the result in the treated group divided by that in the control group, in per cent) is 145% and 137% (compound 0.316 µM); 179% and 154% (compound 1 µM); 187% and 177% (compound 3.16 µM); 96.5% and 86.4% (compound 10 µM); 159% and 132% (compound 31.6 µM); 150% and 129% (compound 100 µM). Besides, the IC50 (usually the concentration needed to halve the response being measured) (curve of compound) was greater than 100000 nM.
Regarding `COC1CC2CCC(C)C(O)(O2)C(=O)C(=O)N2CCCCC2C(=O)OC(C(C)CC2CCC(OCCO)C(OC)C2)CC(=O)C(C)C=C(C)C(O)C(OC)C(=O)C(C)CC(C)C=CC=CC=C1C` (configuration not stated) + CC(C)NCC(C(=O)N1CCN(c2ncnc3c2C(C)CC3O)CC1)c1ccc(Cl)cc1, the IC50 is greater than 100 nM (curve of first compound, second compound 0.3 µM); greater than 100 nM (curve of first compound, second compound 0.949 µM); 28.3 nM (curve of first compound, second compound 3 µM); less than 0.316 nM (curve of first compound, second compound 9.49 µM); less than 0.316 nM (curve of first compound, second compound 30 µM). Also, the viability, T/C is 68.2% (second compound 0.3 µM, first compound 0.000316 µM); 62.3% (second compound 0.3 µM, first compound 0.001 µM); 62.3% (second compound 0.3 µM, first compound 0.00316 µM); 58.5% (second compound 0.3 µM, first compound 0.01 µM); 57.4% (second compound 0.3 µM, first compound 0.0316 µM); 56.3% (second compound 0.3 µM, first compound 0.1 µM). Besides, the viability, T/C (second compound 0.949 µM, first compound 0.000316 µM) is 63.1%; the viability, T/C (second compound 0.949 µM, first compound 0.001 µM) is 58.5%; the viability, T/C (second compound 0.949 µM, first compound 0.00316 µM) is 56.4%; the viability, T/C (second compound 0.949 µM, first compound 0.01 µM) was 59.3%; the viability, T/C (second compound 0.949 µM, first compound 0.0316 µM) is 58.4%; the viability, T/C (second compound 0.949 µM, first compound 0.1 µM) was 61.2%. The viability, T/C was 60.5% (second compound 3 µM, first compound 0.000316 µM); 60.4% (second compound 3 µM, first compound 0.001 µM); 53.3% (second compound 3 µM, first compound 0.00316 µM); 50.7% (second compound 3 µM, first compound 0.01 µM); 52.5% (second compound 3 µM, first compound 0.0316 µM); 46.2% (second compound 3 µM, first compound 0.1 µM). Also, the viability, T/C (second compound 9.49 µM, first compound 0.000316 µM) was 48.2%; the viability, T/C (second compound 9.49 µM, first compound 0.001 µM) was 49.6%; the viability, T/C (second compound 9.49 µM, first compound 0.00316 µM) was 47.3%; the viability, T/C (second compound 9.49 µM, first compound 0.01 µM) is 41.4%; the viability, T/C (second compound 9.49 µM, first compound 0.0316 µM) is 42.5%; the viability, T/C (second compound 9.49 µM, first compound 0.1 µM) was 39.4%. In addition, the viability, T/C (second compound 30 µM, first compound 0.000316 µM) is 31.3%; the viability, T/C (second compound 30 µM, first compound 0.001 µM) was 27.5%; the viability, T/C (second compound 30 µM, first compound 0.00316 µM) is 27.5%; the viability, T/C (second compound 30 µM, first compound 0.01 µM) was 23.8%; the viability, T/C (second compound 30 µM, first compound 0.0316 µM) was 29.3%; the viability, T/C (second compound 30 µM, first compound 0.1 µM) is 25.5%.
